Converted amounts (≈) assume the structure as drawn.
Legend:
Format in all cases: cell-based
[1] = system: Serratia No. 72; assay: Minimum Inhibitory Concentration, Serratia No. 72
Protocol: (§1) anti-microbial activity tests were carried out on the compounds obtained in the Examples.

[2] = system: Pseudomonas aeruginosa 104; assay: Minimum Inhibitory Concentration, Pseudomonas aeruginosa 104; conditions: Pseudomonas aeruginosa 104; for MIC: read-out: Minimum Inhibitory Concentration
Protocol: as §1

[3] = system: Staphylococcus aureus 209 P; assay: Minimum Inhibitory Concentration, Staphylococcus aureus 209 P; conditions: Staphylococcus aureus 209 P; for MIC: read-out: Minimum Inhibitory Concentration
Protocol: as §1

[4] = system: Enterobacter aerogeneus No. 75; assay: Minimum Inhibitory Concentration, Enterobacter aerogeneus No. 75; conditions: Enterobacter aerogeneus No. 75; for MIC: read-out: Minimum Inhibitory Concentration
Protocol: as §1

[5] = system: Escherichia coli NIHJ; assay: Minimum Inhibitory Concentration, Escherichia coli NIHJ; conditions: Escherichia coli NIHJ; for MIC: read-out: Minimum Inhibitory Concentration
Protocol: as §1

[6] = system: Proteus vulgaris HX 19; assay: Minimum Inhibitory Concentration, Proteus vulgaris HX 19; conditions: Proteus vulgaris HX 19; for MIC: HX19, read-out: Minimum Inhibitory Concentration
Protocol: as §1

[7] = system: Staphylococcus aureus FS 289; assay: Minimum Inhibitory Concentration, Staphylococcus aureus FS 289; conditions: Staphylococcus aureus FS 289, strain resistant to penicillin; for MIC: FS289, read-out: Minimum Inhibitory Concentration
Protocol: as §1
*Staphylococcus aureus FS 289: strain resistant to penicillin

[8] = system: Klebsiella pneumoniae 602; assay: Minimum Inhibitory Concentration, Klebsiella pneumoniae 602; conditions: for MIC: Klebsiella pneumoniae, 602, Klebsiella pneumoniae 602, read-out: Minimum Inhibitory Concentration
Protocol: as §1

Row | SMILES | MIC [1] [µg/mL] | MIC [2] [µg/mL] | MIC [3] [µg/mL] | MIC [4] [µg/mL] | MIC [5] [µg/mL] | MIC [6] [µg/mL] | MIC [7] [µg/mL] | MIC [8] [µg/mL] | Minimum Inhibitory Concentration [1] [µg/mL] | Minimum Inhibitory Concentration [2] [µg/mL] | Minimum Inhibitory Concentration [3] [µg/mL] | Minimum Inhibitory Concentration [4] [µg/mL] | Minimum Inhibitory Concentration [5] [µg/mL] | Minimum Inhibitory Concentration [6] [µg/mL] | Minimum Inhibitory Concentration [7] [µg/mL] | Minimum Inhibitory Concentration ([8]; Klebsiella pneumoniae 602) [µg/mL]
1 | CC(=O)OCC1=C(C(=O)O)N2C(=O)C(NC(=O)[C@H](NC(=O)c3cnccc3O)c3cccc(N)c3)C2SC1 (stereo partly drawn) [Example 51, 7-[D-α-(4-Hydroxypyridine-3-carbonamide)-α -m-aminophenylacetamido]cephalosporanic acid] | > 200 | 6.25 (≈ 11.5 µM) | 0.39 (≈ 0.72 µM) | 25 (≈ 46.2 µM) | 12.5 (≈ 23.1 µM) | 0.2 (≈ 0.369 µM) | 3.13 (≈ 5.78 µM) | 12.5 (≈ 23.1 µM) |  |  |  |  |  |  |  | 
2 | Cc1nnc(SCC2=C(C(=O)O)N3C(=O)C(NC(=O)[C@H](NC(=O)c4cnc5cccnc5c4O)c4ccc(N)cc4)C3SC2)s1 (stereo partly drawn) [Example 52, 7-[D-α-(4-Hydroxy-1,5-naphthyridine-3-carbonamido)-α-p-aminophenylacetamido]-3-(2-methyl-1,3,4-thiadiazol-5yl)thiomethyl-3-cephem-4-carboxylic acid] | 12.5 (≈ 18.8 µM) | 6.25 (≈ 9.4 µM) | 1.56 (≈ 2.35 µM) | 3.13 (≈ 4.71 µM) | 1.56 (≈ 2.35 µM) | 0.1 (≈ 0.15 µM) | 6.25 (≈ 9.4 µM) | 3.13 (≈ 4.71 µM) |  |  |  |  |  |  |  | 
3 | CC(=O)OCC1=C(C(=O)O)N2C(=O)C(NC(=O)C(NC(=O)c3cnc4cccnc4c3O)c3cccc(N)c3)C2SC1 (centres unmarked) [Example 53] | 50 (≈ 84.4 µM) | 6.25 (≈ 10.5 µM) | 1.56 (≈ 2.63 µM) | 6.25 (≈ 10.5 µM) | 3.13 (≈ 5.28 µM) | 0.39 (≈ 0.658 µM) | 6.25 (≈ 10.5 µM) | 1.56 (≈ 2.63 µM) |  |  |  |  |  |  |  | 
4 | Nc1cccc(C(NC(=O)c2cnc3cccnc3c2O)C(=O)NC2C(=O)N3C(C(=O)O)=C(CSc4cnn[nH]4)CSC23)c1 (centres unmarked) [Example 54] | 12.5 (≈ 19.7 µM) | 3.13 (≈ 4.94 µM) | 0.78 (≈ 1.23 µM) | 3.13 (≈ 4.94 µM) | 1.56 (≈ 2.46 µM) | 0.1 (≈ 0.158 µM) | 6.25 (≈ 9.86 µM) | 3.13 (≈ 4.94 µM) |  |  |  |  |  |  |  | 
5 | Cn1nnnc1SCC1=C(C(=O)[O-])N2C(=O)C(NC(=O)C(NC(=O)c3cnc4cccnc4c3O)c3cccc(N)c3)C2SC1.[Na+] (centres unmarked) [Example 55] |  |  |  |  |  |  |  |  | 12.5 | 3.13 | 0.78 | 3.13 | 1.56 | 0.1 | 3.13 | 3.13
6 | Cc1nnc(SCC2=C(C(=O)O)N3C(=O)C(NC(=O)C(NC(=O)c4cnccc4O)c4ccc(N)cc4)C3SC2)s1 (centres unmarked) [Example 56] | 50 (≈ 81.5 µM) | 6.25 (≈ 10.2 µM) | 0.39 (≈ 0.635 µM) | 12.5 (≈ 20.4 µM) | 6.25 (≈ 10.2 µM) | 0.1 (≈ 0.163 µM) | 6.25 (≈ 10.2 µM) | 6.25 (≈ 10.2 µM) |  |  |  |  |  |  |  | 
7 | Cn1nnnc1SCC1=C(C(=O)O)N2C(=O)C(NC(=O)C(NC(=O)c3cnccc3O)c3cccc(N)c3)C2SC1 (centres unmarked) [Example 57] | 50 (≈ 83.7 µM) | 6.25 (≈ 10.5 µM) | 0.39 (≈ 0.653 µM) | 12.5 (≈ 20.9 µM) | 6.25 (≈ 10.5 µM) | 0.1 (≈ 0.167 µM) | 6.25 (≈ 10.5 µM) | 6.25 (≈ 10.5 µM) |  |  |  |  |  |  |  | 
8 | CC(=O)OCC1=C(C(=O)O)N2C(=O)C(NC(=O)C(NC(=O)c3ccnnc3O)c3ccc(N)cc3)C2SC1 (centres unmarked) [Example 58] | > 200 | 6.25 (≈ 11.5 µM) | 0.39 (≈ 0.719 µM) | 25 (≈ 46.1 µM) | 12.5 (≈ 23 µM) | 0.2 (≈ 0.369 µM) | 3.13 (≈ 5.77 µM) | 12.5 (≈ 23 µM) |  |  |  |  |  |  |  | 
9 | Nc1cccc(C(NC(=O)c2ccnnc2O)C(=O)NC2C(=O)N3C(C(=O)O)=C(CSc4nncs4)CSC23)c1 (centres unmarked) [Example 59] | 50 (≈ 83.2 µM) | 6.25 (≈ 10.4 µM) | 0.39 (≈ 0.649 µM) | 12.5 (≈ 20.8 µM) | 6.25 (≈ 10.4 µM) | 0.1 (≈ 0.166 µM) | 6.25 (≈ 10.4 µM) | 6.25 (≈ 10.4 µM) |  |  |  |  |  |  |  | 
10 | Cn1nnnc1SCC1=C(C(=O)O)N2C(=O)C(NC(=O)C(NC(=O)c3ccnnc3O)c3cccc(N)c3)C2SC1 (centres unmarked) [Example 60] | 50 (≈ 83.5 µM) | 6.25 (≈ 10.4 µM) | 0.39 (≈ 0.651 µM) | 12.5 (≈ 20.9 µM) | 6.25 (≈ 10.4 µM) | 0.1 (≈ 0.167 µM) | 6.25 (≈ 10.4 µM) | 6.25 (≈ 10.4 µM) |  |  |  |  |  |  |  | 
11 | Cc1nnc(SCC2=C(C(=O)O)N3C(=O)C(NC(=O)C(NC(=O)c4cncnc4O)c4ccc(N)cc4)C3SC2)s1 (centres unmarked) [Example 61] | > 200 | 6.25 (≈ 10.2 µM) | 0.39 (≈ 0.634 µM) | 25 (≈ 40.7 µM) | 25 (≈ 40.7 µM) | 0.2 (≈ 0.325 µM) | 6.25 (≈ 10.2 µM) | 12.5 (≈ 20.3 µM) |  |  |  |  |  |  |  | 
12 | CC(=O)OCC1=C(C(=O)O)N2C(=O)C(NC(=O)C(NC(=O)c3cnc4nc(C)ccc4c3O)c3cccc(N)c3)C2SC1 (centres unmarked) [Example 62] | 100 (≈ 165 µM) | 6.25 (≈ 10.3 µM) | 1.56 (≈ 2.57 µM) | 25 (≈ 41.2 µM) | 12.5 (≈ 20.6 µM) | 0.39 (≈ 0.643 µM) | 6.25 (≈ 10.3 µM) | 3.13 (≈ 5.16 µM) |  |  |  |  |  |  |  | 
13 | Cc1ccc2c(O)c(C(=O)NC(C(=O)NC3C(=O)N4C(C(=O)O)=C(CSc5nnn(C)n5)CSC34)c3cccc(N)c3)cnc2n1 (centres unmarked) [Example 63] | 50 (≈ 75.4 µM) | 6.25 (≈ 9.43 µM) | 1.56 (≈ 2.35 µM) | 12.5 (≈ 18.9 µM) | 6.25 (≈ 9.43 µM) | 0.1 (≈ 0.151 µM) | 6.25 (≈ 9.43 µM) | 1.56 (≈ 2.35 µM) |  |  |  |  |  |  |  | 
14 | Nc1cccc([C@@H](NC(=O)c2cnc3cccnc3c2O)C(=O)NC2C(=O)N3C(C(=O)O)=C(CSc4nncs4)CSC23)c1 (stereo partly drawn) [Example 64, 7-[D-α-(4-Hydroxy-1,5-naphthyridine-3-carbonamido)-α-m-aminophenylacetamido]-3-(1,3,4-thiadiazol-5-yl)thiomethyl-3-cephem-4-carboxylic acid] | 12.5 (≈ 19.2 µM) | 6.25 (≈ 9.6 µM) | 1.56 (≈ 2.4 µM) | 3.13 (≈ 4.81 µM) | 1.56 (≈ 2.4 µM) | 0.1 (≈ 0.154 µM) | 6.25 (≈ 9.6 µM) | 3.13 (≈ 4.81 µM) |  |  |  |  |  |  |  | 
15 | Nc1cccc(C(NC(=O)c2cnc3cccnc3c2O)C(=O)NC2C(=O)N3C(C(=O)O)=C(CSc4ccc(O)nn4)CSC23)c1 (centres unmarked) [Example 65] | 12.5 (≈ 18.9 µM) | 3.13 (≈ 4.74 µM) | 0.78 (≈ 1.18 µM) | 3.13 (≈ 4.74 µM) | 3.13 (≈ 4.74 µM) | 0.2 (≈ 0.303 µM) | 6.25 (≈ 9.46 µM) | 3.13 (≈ 4.74 µM) |  |  |  |  |  |  |  | 
16 | Nc1cccc(C(NC(=O)c2cnc3cccnc3c2O)C(=O)NC2C(=O)N3C(C(=O)O)=C(CSc4nnc(CO)s4)CSC23)c1 (centres unmarked) [Example 66] | 12.5 (≈ 18.4 µM) | 3.13 (≈ 4.6 µM) | 0.78 (≈ 1.15 µM) | 3.13 (≈ 4.6 µM) | 3.13 (≈ 4.6 µM) | 0.1 (≈ 0.147 µM) | 6.25 (≈ 9.18 µM) | 3.13 (≈ 4.6 µM) |  |  |  |  |  |  |  | 
17 | COc1ccc2ncc(C(=O)NC(C(=O)NC3C(=O)N4C(C(=O)O)=C(CSc5nnnn5C)CSC34)c3cccc(N)c3)c(O)c2n1 (centres unmarked) [Example 67] | 12.5 (≈ 18.4 µM) | 3.13 (≈ 4.61 µM) | 0.78 (≈ 1.15 µM) | 3.13 (≈ 4.61 µM) | 1.56 (≈ 2.3 µM) | 0.1 (≈ 0.147 µM) | 3.13 (≈ 4.61 µM) | 3.13 (≈ 4.61 µM) |  |  |  |  |  |  |  | 
18 | Cn1nnnc1SCC1=C(C(=O)O)N2C(=O)C(NC(=O)C(NC(=O)c3cnc4cccnc4c3O)c3cccc(N)c3)C2SC1 (centres unmarked) [Example 68] | 12.5 (≈ 19.3 µM) | 3.13 (≈ 4.83 µM) | 0.78 (≈ 1.2 µM) | 3.13 (≈ 4.83 µM) | 1.56 (≈ 2.4 µM) | 0.1 (≈ 0.154 µM) | 3.13 (≈ 4.83 µM) | 3.13 (≈ 4.83 µM) |  |  |  |  |  |  |  | 
19 | Nc1cccc(C(NC(=O)c2cnccc2O)C(=O)NC2C(=O)N3C(C(=O)O)=C(CSc4nnc(CO)s4)CSC23)c1 (centres unmarked) [Example 69] | 50 (≈ 79.4 µM) | 6.25 (≈ 9.93 µM) | 0.39 (≈ 0.619 µM) | 12.5 (≈ 19.9 µM) | 6.25 (≈ 9.93 µM) | 0.2 (≈ 0.318 µM) | 6.25 (≈ 9.93 µM) | 6.25 (≈ 9.93 µM) |  |  |  |  |  |  |  | 

Source: patent US4156724A, “N-acylamino-alpha-arylacetamido cephalosporins and antibacterial compositions and methods containing them” (Sumitomo Chemical Company, Limited, priority 1974, dated 1979)
